As a reminder, the AC50 is the concentration giving half of the maximal activity seen. Usually CC50 stands for the concentration giving 50% cytotoxicity. What is called IC50 is the concentration that inhibits the measured activity by half. In general, EC50 refers to the concentration at which the effect is half-maximal.

Active and inactive are the calls of the source.

This is an account of results in ChEMBL document CHEMBL1201862, “PubChem BioAssay data set” (2004).

Data set [1] concerns the target Cytochrome P450 3A4 (Homo sapiens, UniProt P08684).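 Note: CYP3A4 tested as one member of a cytochrome P450 panel screen.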
Data set [2] addresses T1, Cytochrome P450 1A2 (Homo sapiens, UniProt P05177).
T1 sequence (P05177 whole entry): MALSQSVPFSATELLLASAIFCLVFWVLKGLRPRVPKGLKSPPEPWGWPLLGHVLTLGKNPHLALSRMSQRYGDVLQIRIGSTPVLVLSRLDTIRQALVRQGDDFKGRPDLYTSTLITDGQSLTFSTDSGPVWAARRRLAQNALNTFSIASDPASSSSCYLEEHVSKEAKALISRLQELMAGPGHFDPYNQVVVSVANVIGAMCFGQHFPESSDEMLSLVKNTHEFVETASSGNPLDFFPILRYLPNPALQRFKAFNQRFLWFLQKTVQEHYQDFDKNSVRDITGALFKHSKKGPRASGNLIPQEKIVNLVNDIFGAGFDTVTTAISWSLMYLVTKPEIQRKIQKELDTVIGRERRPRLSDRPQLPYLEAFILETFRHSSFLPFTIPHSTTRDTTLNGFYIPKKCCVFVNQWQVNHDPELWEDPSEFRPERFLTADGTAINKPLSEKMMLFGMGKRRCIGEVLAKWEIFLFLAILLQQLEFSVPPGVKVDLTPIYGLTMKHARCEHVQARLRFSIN

Data set [3] has as its system Vero. Briefly: cells. Type of data set: functional. The following applies: Chlorocebus sabaeus.
For data set [4], the system named is Vero. Briefly: cells. The data set is classed as functional, cell-based. The settings on record: Chlorocebus sabaeus.
For data set [5], the target named is T2, Sentrin-specific protease 8 (Homo sapiens, UniProt Q96LD8).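 Note: luminescence read-out of SENP8 inhibition, dose-response confirmation following an ultra-high-throughput screen.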
T2 sequence (Q96LD8 whole entry): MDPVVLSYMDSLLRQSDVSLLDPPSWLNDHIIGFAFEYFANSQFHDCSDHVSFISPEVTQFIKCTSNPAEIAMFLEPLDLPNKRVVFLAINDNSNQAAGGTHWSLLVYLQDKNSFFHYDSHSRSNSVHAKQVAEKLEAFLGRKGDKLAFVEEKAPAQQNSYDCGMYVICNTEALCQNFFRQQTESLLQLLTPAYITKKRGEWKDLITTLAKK
Type of data set: functional.

The target in data set [6] is T3, Sentrin-specific protease 7 (Homo sapiens, UniProt Q9BQF6).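 Note: Luminescence-based dose-response confirmation of ultra-high-throughput screening hits, measuring inhibition of SENP7.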
T3 sequence (Q9BQF6 whole entry): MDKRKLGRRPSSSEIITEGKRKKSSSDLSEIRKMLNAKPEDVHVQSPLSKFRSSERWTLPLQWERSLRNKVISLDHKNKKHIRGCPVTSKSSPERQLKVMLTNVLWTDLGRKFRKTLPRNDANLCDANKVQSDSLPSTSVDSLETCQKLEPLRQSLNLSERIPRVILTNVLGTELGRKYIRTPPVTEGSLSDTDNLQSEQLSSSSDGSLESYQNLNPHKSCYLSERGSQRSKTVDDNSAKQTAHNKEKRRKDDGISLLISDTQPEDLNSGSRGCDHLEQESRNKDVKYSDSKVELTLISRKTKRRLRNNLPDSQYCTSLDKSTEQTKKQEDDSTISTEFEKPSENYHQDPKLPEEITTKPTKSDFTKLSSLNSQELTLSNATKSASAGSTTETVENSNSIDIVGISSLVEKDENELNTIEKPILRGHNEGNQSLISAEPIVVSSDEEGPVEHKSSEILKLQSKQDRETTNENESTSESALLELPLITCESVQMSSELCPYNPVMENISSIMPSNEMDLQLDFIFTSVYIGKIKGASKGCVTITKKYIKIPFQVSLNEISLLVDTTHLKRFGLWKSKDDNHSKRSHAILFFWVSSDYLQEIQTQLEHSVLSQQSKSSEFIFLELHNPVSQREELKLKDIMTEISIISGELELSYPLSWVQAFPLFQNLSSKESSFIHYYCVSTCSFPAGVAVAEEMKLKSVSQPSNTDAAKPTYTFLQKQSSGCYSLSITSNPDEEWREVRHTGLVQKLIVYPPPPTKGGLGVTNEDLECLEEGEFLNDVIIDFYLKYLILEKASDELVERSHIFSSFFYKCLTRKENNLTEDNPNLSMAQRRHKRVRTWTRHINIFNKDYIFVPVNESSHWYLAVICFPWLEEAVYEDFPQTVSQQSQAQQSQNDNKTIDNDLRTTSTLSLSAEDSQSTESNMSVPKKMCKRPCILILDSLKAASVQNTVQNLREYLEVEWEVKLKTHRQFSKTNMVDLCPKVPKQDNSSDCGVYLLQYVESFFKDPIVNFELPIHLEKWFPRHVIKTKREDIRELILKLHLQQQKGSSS
The data set is classed as functional.

The target of data set [7] is T4, Sentrin-specific protease 6 (Homo sapiens, UniProt Q9GZR1).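 Note: Luminescence-based dose-response confirmatory assay of SENP6 inhibition, following up an ultra-high-throughput screen.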
T4 sequence (Q9GZR1 whole entry): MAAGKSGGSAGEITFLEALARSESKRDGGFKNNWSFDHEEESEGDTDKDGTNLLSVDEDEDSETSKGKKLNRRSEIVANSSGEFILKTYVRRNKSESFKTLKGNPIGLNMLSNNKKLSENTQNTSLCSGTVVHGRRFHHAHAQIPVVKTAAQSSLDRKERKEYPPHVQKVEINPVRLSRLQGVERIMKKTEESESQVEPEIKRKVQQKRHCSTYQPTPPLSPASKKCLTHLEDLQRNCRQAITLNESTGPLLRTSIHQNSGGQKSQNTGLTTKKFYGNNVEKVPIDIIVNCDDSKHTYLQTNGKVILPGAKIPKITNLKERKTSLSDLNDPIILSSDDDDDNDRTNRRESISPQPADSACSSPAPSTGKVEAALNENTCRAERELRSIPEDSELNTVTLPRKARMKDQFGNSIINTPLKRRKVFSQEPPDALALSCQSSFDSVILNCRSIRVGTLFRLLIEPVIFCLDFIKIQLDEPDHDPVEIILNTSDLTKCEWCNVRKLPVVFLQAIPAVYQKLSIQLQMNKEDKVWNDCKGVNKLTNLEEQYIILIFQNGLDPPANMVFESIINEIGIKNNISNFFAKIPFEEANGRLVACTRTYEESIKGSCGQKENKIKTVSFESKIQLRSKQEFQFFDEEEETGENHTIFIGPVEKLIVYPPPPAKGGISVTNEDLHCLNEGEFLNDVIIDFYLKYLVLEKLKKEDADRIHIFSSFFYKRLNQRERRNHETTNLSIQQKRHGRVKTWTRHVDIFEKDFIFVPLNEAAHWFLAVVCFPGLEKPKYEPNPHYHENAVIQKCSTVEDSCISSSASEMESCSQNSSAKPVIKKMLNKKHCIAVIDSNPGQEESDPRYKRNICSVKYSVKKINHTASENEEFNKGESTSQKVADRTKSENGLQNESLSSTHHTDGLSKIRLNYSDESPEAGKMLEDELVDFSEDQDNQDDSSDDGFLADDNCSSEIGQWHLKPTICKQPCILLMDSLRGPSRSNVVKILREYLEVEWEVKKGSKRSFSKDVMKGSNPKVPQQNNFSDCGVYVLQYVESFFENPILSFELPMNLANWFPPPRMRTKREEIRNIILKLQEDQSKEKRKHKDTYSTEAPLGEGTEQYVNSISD
The data set is classed as functional.

Data set [8] deals with T5, Caspase-3 (Homo sapiens, UniProt P42574).
T5 sequence (P42574 whole entry): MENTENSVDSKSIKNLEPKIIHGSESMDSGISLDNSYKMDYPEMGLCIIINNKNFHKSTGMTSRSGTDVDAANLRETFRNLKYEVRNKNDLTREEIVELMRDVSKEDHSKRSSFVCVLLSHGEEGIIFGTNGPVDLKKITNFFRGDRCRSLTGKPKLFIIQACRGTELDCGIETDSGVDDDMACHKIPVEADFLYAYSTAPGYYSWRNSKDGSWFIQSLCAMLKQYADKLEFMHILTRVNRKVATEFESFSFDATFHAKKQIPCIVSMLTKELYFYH
The data set is classed as functional.

Data set [9] concerns the target T6, Carboxy-terminal domain RNA polymerase II polypeptide A small phosphatase 1 (Homo sapiens, UniProt Q9GZU7).
T6 sequence (Q9GZU7 whole entry): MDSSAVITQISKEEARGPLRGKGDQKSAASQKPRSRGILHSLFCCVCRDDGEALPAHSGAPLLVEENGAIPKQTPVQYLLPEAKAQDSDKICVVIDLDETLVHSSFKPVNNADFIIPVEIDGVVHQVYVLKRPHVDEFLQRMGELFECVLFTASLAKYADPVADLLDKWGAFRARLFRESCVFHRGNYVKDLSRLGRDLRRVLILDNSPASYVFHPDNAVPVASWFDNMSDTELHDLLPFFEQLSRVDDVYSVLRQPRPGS
Briefly: CTDSP1 inhibitors, concentration-response, biochemical, absorbance readout, ultra-high-throughput screen actives (AID 540297). Type of data set: functional.

Data set [10] deals with T7, High affinity choline transporter 1 (Homo sapiens, UniProt Q9GZV3).
T7 sequence (Q9GZV3 whole entry): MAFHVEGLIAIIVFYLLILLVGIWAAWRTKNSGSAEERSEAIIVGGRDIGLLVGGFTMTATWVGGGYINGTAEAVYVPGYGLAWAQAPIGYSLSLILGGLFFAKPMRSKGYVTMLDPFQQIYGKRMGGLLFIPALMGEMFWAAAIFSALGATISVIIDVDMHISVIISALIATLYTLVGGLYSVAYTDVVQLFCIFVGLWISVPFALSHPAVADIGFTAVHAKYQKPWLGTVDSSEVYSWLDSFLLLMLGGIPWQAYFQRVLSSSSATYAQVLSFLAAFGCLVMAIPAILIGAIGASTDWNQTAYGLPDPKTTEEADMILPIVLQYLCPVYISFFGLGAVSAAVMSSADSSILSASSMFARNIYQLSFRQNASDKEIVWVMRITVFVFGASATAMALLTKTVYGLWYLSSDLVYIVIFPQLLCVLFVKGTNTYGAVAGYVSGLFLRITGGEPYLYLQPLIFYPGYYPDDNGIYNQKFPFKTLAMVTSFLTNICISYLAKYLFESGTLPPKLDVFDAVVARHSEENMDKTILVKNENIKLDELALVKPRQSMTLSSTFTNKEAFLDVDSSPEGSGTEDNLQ
Briefly: human choline transporter blockers, potency – cell-based, 5-point CRC, membrane potential dye, dose response (AID 504840). Type of data set: functional.

Data set [11] is described as follows: viability of uninfected HEp-2 cells – cell-based, HTS, cytotoxicity control for RSV inhibitor project, dose response (AID 2410). The data set is classed as functional. The settings on record: human respiratory syncytial virus.
For data set [12], the system named is Streptococcus sp. 'group A'. Briefly: Streptococcus pyogenes SK(-)GAS viability under kanamycin – luminescence, BacTiterGlo, confirmation, counter-screen for streptokinase expression inhibitor project, dose response (AID 1900). The data set is classed as functional, organism-based.
In data set [13] the test system is Streptococcus. Briefly: GAS UMAA2166 growth inhibition – luminescence, BacTiterGlo, counter-screen for streptokinase expression inhibitor project, dose response (AID 1915).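 Note: potency for reduction of bacterial viability or growth.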 The data set is classed as functional, organism-based. For orientation: The purpose of a counterscreen is to sort out artefacts and off-target activity.
The target of data set [14] is T8, Streptokinase A (Streptococcus pyogenes serotype M1, UniProt P10520).
T8 sequence (P10520 whole entry): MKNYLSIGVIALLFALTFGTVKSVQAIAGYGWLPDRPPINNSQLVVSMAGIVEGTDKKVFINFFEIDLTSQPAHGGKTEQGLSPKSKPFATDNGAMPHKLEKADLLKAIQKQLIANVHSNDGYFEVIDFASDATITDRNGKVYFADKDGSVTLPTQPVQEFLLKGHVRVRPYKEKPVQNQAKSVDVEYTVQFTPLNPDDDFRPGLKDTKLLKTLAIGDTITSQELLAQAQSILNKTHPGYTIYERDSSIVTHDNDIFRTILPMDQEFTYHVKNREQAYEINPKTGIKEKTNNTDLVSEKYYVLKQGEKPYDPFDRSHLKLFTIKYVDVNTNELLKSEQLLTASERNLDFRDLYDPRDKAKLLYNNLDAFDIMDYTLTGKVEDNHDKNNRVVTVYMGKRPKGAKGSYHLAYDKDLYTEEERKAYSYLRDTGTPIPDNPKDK
Briefly: viability-normalized secreted streptokinase activity reduction – plasminogen activation absorbance, OD405, dose response (AID 1914).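 Note: secreted streptokinase activity via plasminogen activation per viability signal from cell pellet.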 Type of data set: functional, Streptococcus pyogenes M1 GAS.

Sequence of Cytochrome P450 3A4 (P08684 whole entry): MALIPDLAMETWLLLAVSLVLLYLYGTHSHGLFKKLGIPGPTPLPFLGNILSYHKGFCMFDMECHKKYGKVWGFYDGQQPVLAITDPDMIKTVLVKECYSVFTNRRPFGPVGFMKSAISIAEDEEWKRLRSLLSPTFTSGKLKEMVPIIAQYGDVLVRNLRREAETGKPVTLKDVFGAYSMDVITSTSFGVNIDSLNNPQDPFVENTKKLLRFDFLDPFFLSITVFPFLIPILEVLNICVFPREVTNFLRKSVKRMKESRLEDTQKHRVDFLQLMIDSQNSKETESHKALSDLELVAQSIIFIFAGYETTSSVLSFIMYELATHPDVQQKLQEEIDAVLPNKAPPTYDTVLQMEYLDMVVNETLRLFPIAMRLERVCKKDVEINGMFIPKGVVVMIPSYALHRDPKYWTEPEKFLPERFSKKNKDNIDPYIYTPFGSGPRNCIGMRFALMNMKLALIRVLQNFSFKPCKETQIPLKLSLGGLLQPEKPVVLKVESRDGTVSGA

For the compound `CC(C)n1cnc2c(C(=O)N[C@H]3CN4CCC3CC4)cc(Cl)cc21`, the AC50 entry in [1] is “inconclusive”; in data set [2], 39.8 µM (inconclusive).

`CN1CCN(c2ccc3sc(-n4ccc5ccccc54)nc3c2)CC1`: the CC50 in data set [3] was > 25 µM (active). Also, in data set [4], the IC50 is 22.7 µM (active).

On to `Cc1ccc(Nc2ncnc3c2oc2ccccc23)cc1`, for which the IC50 in [5] was > 100 µM (inactive); in data set [6], 5.1 µM (active); in [7] it was > 100 µM (inactive); in data set [8], 28 µM (active).

Turning to `Cc1cccn2c(=O)c3cc(C#N)/c(=N\C(=O)c4ccco4)n(Cc4ccco4)c3nc12`, in data set [9], the IC50 was > 80 µM (inactive).

Take `CC(=O)c1ccccc1NS(=O)(=O)c1cccc2nsnc12`: the IC50 in data set [9] is 4.66 µM (active).

With `O=C(CSc1nnc(-c2ccco2)n1Cc1ccco1)NCc1cccs1`, in data set [10], the 50% inhibitory concentration (IC50) is 9.55 µM (active).

As to `CC(Oc1ccccc1F)C(=O)Nc1ccc2ccccc2c1` (configuration not stated), the IC50 in data set [4] was > 6.25 µM (active).

In the case of `COc1cc2c(cc1NC(=O)c1ccc(C(C)(C)C)cc1)CCCC2`, in data set [11], the CC50 was 18.2 µM (active). Moreover, the IC50 in data set [4] was 8.78 µM (active).

On to `C=CCSc1nc2ccccc2n1Cc1nnc(-c2cccs2)o1`, for which the IC50 in [10] is 0.457 µM (active).

Regarding `Cc1cccc(NCc2nc3ccccc3n2Cc2ccccc2)c1`, the EC50 is 8.81 µM (active) in data set [12], > 150 µM (not active) in [13] and > 150 µM (not active) in data set [14]. The concentration for half-maximal inhibition (IC50) in [5] is 54.9 µM (active); in data set [6], 12.7 µM (active); in data set [7] it was 37.7 µM (active); in [8] it was 44.6 µM (active).

Turning to `O=C(C[n+]1cccc(Br)c1)c1cccs1`, the IC50 in data set [10] is 13.2 µM (active).

Turning to `CCOC(=O)c1cc2ccc3ccccc3c2s1`, the IC50 in data set [5] was > 100 µM (inactive); in [6], 10.5 µM (active); in [7], 70.9 µM (active); in data set [8], 49.5 µM (active).
